Test results taken from PubChem BioAssay (NCI).
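Values below derive from 48-hour exposures of cells grown in 96-well plates, with endpoints linearly interpolated between the two concentrations bracketing the appropriate inhibition level. At the GI50, growth is halved. The concentration for full growth arrest is given as TGI.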

Experiments:
Assay in all cases: NCI-60 cell line screen, 48 h
SNB-78 CNS = tested on: SNB-78 CNS
M19-MEL melanoma = tested on: M19-MEL melanoma
KM20L2 colon = tested on: KM20L2 colon
LXFL 529 NSCLC = tested on: LXFL 529 NSCLC
DLD-1 colon = tested on: DLD-1 colon
XF 498 CNS = tested on: XF 498 CNS

Compound	TGI (SNB-78 CNS) [µM]	TGI (M19-MEL melanoma) [µM]	TGI (KM20L2 colon) [µM]	TGI (LXFL 529 NSCLC) [µM]	TGI (DLD-1 colon) [µM]	TGI (XF 498 CNS) [µM]	GI50 (SNB-78 CNS) [µM]	GI50 (M19-MEL melanoma) [µM]	GI50 (KM20L2 colon) [µM]	GI50 (LXFL 529 NSCLC) [µM]	GI50 (DLD-1 colon) [µM]	GI50 (XF 498 CNS) [µM]
O=C1C(Cl)=C(Cl)C(=O)N1C1C2CC3CC(C2)CC1C3 (stereo not given)	> 100	> 100	> 100	> 100	> 100	> 100						
CC(C)NCCNC(=O)c1ccccc1Nc1c(Cl)cccc1Cl	31.5	20.8	5.78	31.5	25.7	11.4						
Cc1cccc(C(C)(C)C)c1NC(=O)C(=O)C(C(=O)/C=C\c1ccccc1)C1OC(=O)c2ccccc21 (stereo not given)	> 100	> 100	> 100	> 100	> 100	> 100						
COC(=O)C(CCS(=O)(=O)CC(=O)C(=O)Nc1cccc(C(C)=O)c1)C(=O)OC	> 100	> 100	> 100	> 100	> 100	> 100						
CCOc1ccc(N=Cc2cccc3cccnc23)cc1	> 100	> 100	> 100	> 100	> 100	> 100						
O=C1C(Cl)C(c2cccc(O)c2)N1n1cnc2ccccc2c1=O (stereo not given)	> 100	> 100	> 100	> 100	> 100	> 100						
O=S(=O)([O-])c1cccc2cccc(N=Cc3ccccc3[O-])c12.O=S(=O)([O-])c1cccc2cccc(N=Cc3ccccc3[O-])c12.[O]=[U]=[O]	> 100	> 100	> 100	> 100	> 100	> 100	> 100	> 100	> 100	54.5	> 100	> 100
CC(C)N(C(=O)C12C3C4C5(C#N)C3C1(I)C5C42I)C(C)C (stereo not given)	> 100	> 100	> 100	> 100	> 100	> 100						
COC(=O)C1CC(C(=O)OC)c2nc3cc(C)ccc3nc21 (stereo not given)	> 100	> 100	> 100	> 100	> 100	> 100						
